This is an account of results in ChEMBL document CHEMBL1133001, “Protection against oxidative damage by iron chelators: effect of lipophilic analogues and prodrugs of N,N'-bis(3,4,5-trimethoxybenzyl)ethylenediamine- N,N'-diacetic acid (OR10141)” (J Med Chem, 2000).

The nature of the assay: Compound was tested for inhibition of hydrogen peroxide toxicity against human skin fibroblasts. Format: functional.

As for `CCCCCCCOc1c(OC)cc(CN(CCN(CC(=O)O)Cc2cc(OC)c(OCCCCCCC)c(OC)c2)CC(=O)O)cc1OC`, 50 µM corresponded to half-maximal inhibition (IC50).

Regarding `COc1cc(CN(CCN(CC(=O)OCOC(C)=O)Cc2cc(OC)c(OC)c(OC)c2)CC(=O)OCOC(C)=O)cc(OC)c1OC`, the concentration for half-maximal inhibition (IC50) was determined as 3 µM.
